Data set [1] is described as follows: Oxidative metabolic stability in murine microsomes. As to conditions: for CLint scaled at 0.8 µM: mouse, microsomes.
The next data set has as its target DCN1-UBE2M interaction (Homo sapiens, UniProt Q96GG9). Briefly: biochemical. The format is binding. As to conditions: for Activity in TR-FRET binding assay, in words: maximum tested concentration 15 μM, values in Supplementary Tables.
The test system of the next data set is HCC95 cells. To be noted: dose-response up to 30 μM, 5 hours.
The target of a further data set is DCN2 (Homo sapiens, UniProt Q6PH85). Briefly: Pulse-chase assay of NEDD8 transfer, DCN2 stimulated. The format is biochemical. As to conditions: 10 μM; NEDD8 transfer from UBE2M to CUL2.
In the next data set the target is T1, DCN4 (Homo sapiens, UniProt Q92564).
T1 sequence (Q92564 1-292): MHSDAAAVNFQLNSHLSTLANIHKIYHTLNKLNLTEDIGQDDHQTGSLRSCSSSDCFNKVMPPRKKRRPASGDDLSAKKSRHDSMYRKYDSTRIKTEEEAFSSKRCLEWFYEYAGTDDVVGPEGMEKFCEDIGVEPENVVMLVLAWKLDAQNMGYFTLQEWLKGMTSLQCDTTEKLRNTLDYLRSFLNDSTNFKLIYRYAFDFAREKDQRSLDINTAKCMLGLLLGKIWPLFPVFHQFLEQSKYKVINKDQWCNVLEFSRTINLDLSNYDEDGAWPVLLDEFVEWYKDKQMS
Nature of the data set: Pulse-chase assay of NEDD8 transfer, DCN4 stimulated. As to conditions: 10 μM; NEDD8 transfer from UBE2M to CUL2. The format is biochemical.

Another data set addresses T2, DCN5 (Homo sapiens, UniProt Q9BTE7).
T2 sequence (Q9BTE7 1-237): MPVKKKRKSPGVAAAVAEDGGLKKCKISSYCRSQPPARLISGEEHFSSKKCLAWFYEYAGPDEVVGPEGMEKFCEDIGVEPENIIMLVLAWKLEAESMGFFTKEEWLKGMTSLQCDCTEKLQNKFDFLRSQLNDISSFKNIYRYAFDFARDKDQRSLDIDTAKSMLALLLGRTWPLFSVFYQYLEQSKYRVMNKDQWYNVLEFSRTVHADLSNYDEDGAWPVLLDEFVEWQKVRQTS
Briefly: Pulse-chase assay of NEDD8 transfer, DCN5 stimulated. The format is biochemical. To be noted: 10 μM; NEDD8 transfer from UBE2M to CUL2.

For a further data set, the target named is T3, DCN3 (Homo sapiens, UniProt Q8IWE4).
T3 sequence (Q8IWE4 1-304): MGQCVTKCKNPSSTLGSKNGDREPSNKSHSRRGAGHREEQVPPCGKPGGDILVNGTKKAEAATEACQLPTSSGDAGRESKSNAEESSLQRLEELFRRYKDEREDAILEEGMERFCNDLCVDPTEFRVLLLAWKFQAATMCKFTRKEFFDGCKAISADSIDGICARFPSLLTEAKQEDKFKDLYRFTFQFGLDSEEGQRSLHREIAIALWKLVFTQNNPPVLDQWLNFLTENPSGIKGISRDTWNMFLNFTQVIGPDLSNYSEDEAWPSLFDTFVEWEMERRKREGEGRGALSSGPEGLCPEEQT
Nature of the data set: Pulse-chase assay of NEDD8 transfer, DCN3 stimulated. The format is biochemical. As to conditions: 10 μM; NEDD8 transfer from UBE2M to CUL2.

The subject of data set [2] is cullin neddylation in HCC95 cells. To be noted: 10 μM (MLN4924 1 μM), 48 hours, most pronounced on CUL1 and CUL3.
Data set [3] concerns cullin neddylation in CAL33 cells. To be noted: 10 μM (MLN4924 1 μM), 48 hours, most pronounced on CUL1 and CUL3.

The values below come from article PMC7228038 (Journal of medicinal chemistry, 2019).

DCN1-UBE2M interaction, sequence (Q96GG9 whole entry): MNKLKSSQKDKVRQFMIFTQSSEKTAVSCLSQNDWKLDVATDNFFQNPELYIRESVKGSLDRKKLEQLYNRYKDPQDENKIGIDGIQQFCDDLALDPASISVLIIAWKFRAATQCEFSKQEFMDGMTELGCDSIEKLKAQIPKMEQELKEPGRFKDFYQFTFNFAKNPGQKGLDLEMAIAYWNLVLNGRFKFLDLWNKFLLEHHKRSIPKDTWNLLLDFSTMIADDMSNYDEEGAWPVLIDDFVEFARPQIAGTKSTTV
DCN2, sequence (Q6PH85 whole entry): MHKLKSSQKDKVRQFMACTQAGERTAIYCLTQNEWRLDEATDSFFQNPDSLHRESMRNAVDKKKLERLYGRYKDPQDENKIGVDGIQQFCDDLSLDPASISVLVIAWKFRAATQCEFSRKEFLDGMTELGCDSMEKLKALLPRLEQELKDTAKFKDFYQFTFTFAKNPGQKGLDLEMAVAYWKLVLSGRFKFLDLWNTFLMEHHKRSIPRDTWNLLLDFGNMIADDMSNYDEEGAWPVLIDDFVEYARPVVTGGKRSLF

`Cc1cccc(C(=O)N[C@@H]2C(=O)Nc3c(c(C)nn3-c3ccccc3)[C@@H]2c2ccc(F)cc2)c1` (racemic) [Compound 3] gave a CLint scaled at 0.8 µM in data set [1] of 50.3 ± 5 mL/min/kg. In data set [1] (murine microsomes, relative to NAcM-OPT), the “Murine microsomal stability compared with that previously reported for NAcM-OPT” value was at most 2 fold. With `Cc1cccc(C(=O)N[C@@H]2C(=O)Nc3c(c(C)nn3C3CCCC3)[C@@H]2c2ccc(F)cc2)c1` (racemic) [Compound 24], the intrinsic metabolic clearance (CLint scaled) at 0.8 µM in [1] was determined as 116 ± 10.7 mL/min/kg. As for `CCn1nc(C)c2c1NC(=O)[C@@H](NC(=O)c1cccc(C)c1)[C@H]2c1ccc(F)cc1` (racemic) [Compound 65], the intrinsic clearance (CLint scaled) at 0.8 µM in data set [1] worked out at 89.7 ± 4.7 mL/min/kg. Also, the “Activity in TR-FRET binding assay, in words” value (“Activity” for short) at DCN1-UBE2M interaction is on record as “roughly equipotent to the phenyl derivative (3)”. In the case of `Cc1cccc(C(=O)N[C@H]2C(=O)Nc3c(c(C)nn3-c3ccccc3)[C@@H]2c2ccc(F)cc2)c1` (racemic) [Compound 87, N-((4S,5R)-4-(4-fluorophenyl)-3-methyl-6-oxo-1-phenyl-4,5,6,7-tetrahydro-1H-pyrazolo[3,4-b]pyridin-5-yl)-3-methylbenzamide], in the data set with HCC95 cells, the “Effect on reactive oxygen species (DCFDA)” value is “neither 27, 87, nor NAcM-OPT have any measurable effects on reactive oxygen species”. In addition, at DCN1-UBE2M interaction, the “Activity” value is “inactive”. In data set [1], `Cc1ccc([C@H]2c3c(C)nn(-c4ccccc4)c3NC(=O)[C@H]2NC(=O)c2cccc(C)c2)cc1` (relative stereo) [Compound 1, 3-methyl-N-(rel-(4S,5S)-3-methyl-6-oxo-1-phenyl-4-(p-tolyl)-4,5,6,7-tetrahydro-1H-pyrazolo[3,4-b]pyridin-5-yl)benzamide] yielded a CLint scaled at 0.8 µM of 160 ± 5 mL/min/kg. As for `CCN1C(=O)[C@@H](NC(=O)c2cccc(C)c2)[C@@H](c2ccc(F)cc2)c2c(C)nn(-c3ccccc3)c21` (relative stereo) [Compound 27, N-(rel-(4S,5S)-7-ethyl-4-(4-fluorophenyl)-3-methyl-6-oxo-1-phenyl-4,5,6,7-tetrahydro-1H-pyrazolo[3,4-b]pyridin-5-yl)-3-methylbenzamide], the “Inhibition of DCN2 stimulated cullin neddylation (pulse-chase)” value at DCN2 is on record as “inhibiting”. The “Inhibition of DCN4 stimulated cullin neddylation (pulse-chase)” value on DCN4 was “not inhibited”. Moreover, the “Inhibition of DCN5 stimulated cullin neddylation (pulse-chase)” value at DCN5 is “not inhibited”. The “Inhibition of DCN3 stimulated cullin neddylation (pulse-chase)” value on DCN3 is “not inhibited”. The intrinsic clearance (CLint scaled) at 0.8 µM in [1] amounted to 44.9 ± 3.7 mL/min/kg. Regarding `Cc1nn(-c2ccccc2)c2c1[C@H](c1ccc(F)cc1)[C@H](NC(=O)c1cccc(C(F)(F)F)c1)C(=O)N2` [Compound 11], on DCN1-UBE2M interaction, it took 3.5 ± 0.5 µM to reach half-maximal inhibition (IC50). For the molecule `Cc1cccc(NC(=O)[C@@H]2C(=O)Nc3c(c(C)nn3-c3ccccc3)[C@@H]2c2ccc(F)cc2)c1` [Compound 128], the “Activity” value at DCN1-UBE2M interaction is recorded as “not tolerated”. Turning to `Cc1nn(-c2ccccc2)c2c1[C@H](c1ccc(F)cc1)[C@H](C(=O)Nc1ccc(Cl)c(Cl)c1)C(=O)N2` [Compound 131], at DCN1-UBE2M interaction, the “Activity” value is “not tolerated”. `NS(=O)(=O)OC[C@@H]1C[C@@H](n2ccc3c(N[C@H]4CCc5ccccc54)ncnc32)C[C@@H]1O` [MLN4924]: the “Inhibition of steady-state cullin neddylation (immunoblot), HCC95” value in data set [2] is “complete blockade of neddylation”. The “Inhibition of steady-state cullin neddylation (immunoblot), CAL33” value in data set [3] is on record as “complete blockade of neddylation”. As to `CCCCN1CCC(N(Cc2ccccc2)C(=O)Nc2ccc(Cl)c(Cl)c2)CC1` [NAcM-OPT, reference compound], in the data set on HCC95 cells, the “Effect on reactive oxygen species (DCFDA)” value is given as “neither 27, 87, nor NAcM-OPT have any measurable effects on reactive oxygen species”.

One may read the CLint scaled as the capacity of the preparation to metabolise the compound, expressed as a volume cleared per time. A low value points to slow turnover. A word on the IC50: it is the point on the concentration scale where inhibition reaches its midpoint.
